Experimental data taken from the supplement of paper PMC8617591.

Columns and labels:
[1] = test system: Mycobacterium tuberculosis Erdman (autoluminescent); assay: Einf, fitted maximum growth inhibition of three-drug combination (fraction); higher = stronger maximal inhibition
Procedure: (§1)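 DiaMOND equipotent three-drug combination dose responses (10 doses, 1.5- or 2-fold spacing, centred on IC90) against autoluminescent M. tuberculosis Erdman in 8 in vitro models. Read-out is OD600, or luminescence for the intracellular and dormancy models, normalised to untreated wells. Hill-fit Einf, AUC25 and GRinf are potency metrics; FIC50 and FIC90 are total Loewe fractional inhibitory concentrations as log2 (negative = synergy).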

[2] = test system: Mycobacterium tuberculosis Erdman (autoluminescent); assay: AUC25, normalised area under dose response up to IC25 (three-drug combination) (fraction (0-1)); higher = more potent at low dose
Procedure: as §1

[3] = test system: Mycobacterium tuberculosis Erdman (autoluminescent); assay: total FIC50 (Loewe) at 50% inhibition, three-drug combination (log2); higher = more antagonistic
Procedure: as §1

[4] = test system: Mycobacterium tuberculosis Erdman (autoluminescent); assay: total FIC90 (Loewe) at 90% inhibition, three-drug combination (log2); higher = more antagonistic
Procedure: as §1

[5] = test system: Mycobacterium tuberculosis Erdman (autoluminescent); assay: GRinf, maximum normalised growth rate inhibition (three-drug combination) (unitless (-1 to 1)); higher = less effect (negative = killing)
Procedure: as §1

[6] = in vitro model: acidic pH 5.7, time point: constant (~7 days, model-specific)
[7] = in vitro model: acidic pH 5.7, time point: terminal (~4-5 doublings, model-specific)
[8] = in vitro model: butyrate, time point: constant (~7 days, model-specific)
[9] = in vitro model: butyrate, time point: terminal (~4-5 doublings, model-specific)
[10] = in vitro model: cholesterol 0.05 mM, time point: constant (~7 days, model-specific)
[11] = in vitro model: cholesterol 0.05 mM, time point: terminal (~4-5 doublings, model-specific)
[12] = in vitro model: cholesterol-high 0.2 mM, time point: constant (~7 days, model-specific)
[13] = in vitro model: cholesterol-high 0.2 mM, time point: terminal (~4-5 doublings, model-specific)
[14] = in vitro model: dormancy (butyrate + nitrate, low O2), time point: constant (~7 days, model-specific)
[15] = in vitro model: dormancy (butyrate + nitrate, low O2), time point: terminal (~4-5 doublings, model-specific)
[16] = in vitro model: intracellular J774, time point: constant = terminal
[17] = in vitro model: standard 7H9 glycerol, time point: constant = terminal
[18] = in vitro model: valerate, time point: constant (~7 days, model-specific)
[19] = in vitro model: valerate, time point: terminal (~4-5 doublings, model-specific)

## CC(C)/N=c1\cc2n(-c3ccc(Cl)cc3)c3ccccc3nc-2cc1Nc1ccc(Cl)cc1 [clofazimine] + CC(=O)NC[C@H]1CN(c2ccc(N3CCOCC3)c(F)c2)C(=O)O1 [linezolid] + CO[C@H]1/C=C/O[C@@]2(C)Oc3c(C)c(O)c4c(O)c(c(/C=N/N5CCN(C6CCCC6)CC5)c(O)c4c3C2=O)NC(=O)/C(C)=C\C=C\[C@H](C)[C@H](O)[C@@H](C)[C@@H](O)[C@@H](C)[C@H](OC(C)=O)[C@@H]1C [rifapentine]
[1]; [6]
  Einf: 0.874
[1]; [7]
  Einf: 0.98
[1]; [8]
  Einf: 0.918
[1]; [9]
  Einf: 0.943
[1]; [10]
  Einf: 0.731
[1]; [11]
  Einf: 0.942
[1]; [12]
  Einf: 0.928
[1]; [13]
  Einf: 1
[1]; [14]
  Einf: 0.914
[1]; [15]
  Einf: 0.99
[1]; [16]
  Einf: 0.926
[1]; [17]
  Einf: 0.945
[1]; [18]
  Einf: 0.883
[1]; [19]
  Einf: 0.95
[2]; [6]
  AUC25: 0.0854
[2]; [7]
  AUC25: 0.0814
[2]; [8]
  AUC25: 0.0929
[2]; [9]
  AUC25: 0.0457
[2]; [10]
  AUC25: 0.126
[2]; [11]
  AUC25: 0.136
[2]; [12]
  AUC25: 0.114
[2]; [13]
  AUC25: 0.124
[2]; [14]
  AUC25: 0.0702
[2]; [15]
  AUC25: 0.046
[2]; [17]
  AUC25: 0.105
[2]; [18]
  AUC25: 0.113
[2]; [19]
  AUC25: 0.0863
[3]; [6]
  total FIC50: 0.564
[3]; [7]
  total FIC50: 0.455
[3]; [8]
  total FIC50: 0.328
[3]; [9]
  total FIC50: 0.369
[3]; [10]
  total FIC50: -0.42
[3]; [11]
  total FIC50: 0.236
[3]; [12]
  total FIC50: 0.312
[3]; [13]
  total FIC50: 0.111
[3]; [14]
  total FIC50: 1.42
[3]; [15]
  total FIC50: 1.03
[3]; [17]
  total FIC50: 0.0429
[3]; [18]
  total FIC50: 0.974
[3]; [19]
  total FIC50: 0.608
[4]; [7]
  total FIC90: 0.39
[4]; [8]
  total FIC90: 1.2
[4]; [9]
  total FIC90: -0.292
[4]; [11]
  total FIC90: 0.563
[4]; [12]
  total FIC90: 1.27
[4]; [13]
  total FIC90: 0.601
[4]; [14]
  total FIC90: 1.23
[4]; [15]
  total FIC90: 0.905
[4]; [16]
  total FIC90: -0.239
[4]; [17]
  total FIC90: 0.805
[4]; [19]
  total FIC90: 1.24
[5]; [6]
  GRinf: -0.12
[5]; [7]
  GRinf: -0.151
[5]; [8]
  GRinf: -0.00889
[5]; [9]
  GRinf: 0.0319
[5]; [10]
  GRinf: -0.0827
[5]; [11]
  GRinf: -0.212
[5]; [12]
  GRinf: -0.916
[5]; [13]
  GRinf: -0.975
[5]; [14]
  GRinf: 0.025
[5]; [15]
  GRinf: -0.23
[5]; [16]
  GRinf: -0.19
[5]; [17]
  GRinf: 0.00644
[5]; [18]
  GRinf: -0.112
[5]; [19]
  GRinf: -0.00893

## CC(C)/N=c1\cc2n(-c3ccc(Cl)cc3)c3ccccc3nc-2cc1Nc1ccc(Cl)cc1 [clofazimine] + CC(=O)NC[C@H]1CN(c2ccc(N3CCOCC3)c(F)c2)C(=O)O1 [linezolid] + CO[C@H]1/C=C/O[C@@]2(C)Oc3c(C)c(O)c4c(O)c(c(/C=N/N5CCN(C)CC5)c(O)c4c3C2=O)NC(=O)/C(C)=C\C=C\[C@H](C)[C@H](O)[C@@H](C)[C@@H](O)[C@@H](C)[C@H](OC(C)=O)[C@@H]1C [rifampicin]
[1]; [6]
  Einf: 0.853
[1]; [7]
  Einf: 0.981
[1]; [8]
  Einf: 0.922
[1]; [9]
  Einf: 0.95
[1]; [10]
  Einf: 0.687
[1]; [11]
  Einf: 0.908
[1]; [12]
  Einf: 0.963
[1]; [13]
  Einf: 0.995
[1]; [14]
  Einf: 0.908
[1]; [15]
  Einf: 0.979
[1]; [16]
  Einf: 0.941
[1]; [17]
  Einf: 0.917
[1]; [18]
  Einf: 0.885
[1]; [19]
  Einf: 0.942
[2]; [6]
  AUC25: 0.0866
[2]; [7]
  AUC25: 0.0808
[2]; [8]
  AUC25: 0.103
[2]; [9]
  AUC25: 0.07
[2]; [10]
  AUC25: 0.14
[2]; [11]
  AUC25: 0.132
[2]; [12]
  AUC25: 0.13
[2]; [13]
  AUC25: 0.107
[2]; [14]
  AUC25: 0.0831
[2]; [15]
  AUC25: 0.0549
[2]; [17]
  AUC25: 0.0962
[2]; [18]
  AUC25: 0.0981
[2]; [19]
  AUC25: 0.058
[3]; [6]
  total FIC50: 0.38
[3]; [7]
  total FIC50: 0.419
[3]; [8]
  total FIC50: 0.22
[3]; [9]
  total FIC50: 0.26
[3]; [10]
  total FIC50: -0.708
[3]; [11]
  total FIC50: 4.59
[3]; [12]
  total FIC50: 0.342
[3]; [13]
  total FIC50: 0.34
[3]; [14]
  total FIC50: 1.29
[3]; [15]
  total FIC50: 0.408
[3]; [17]
  total FIC50: 0.0668
[3]; [18]
  total FIC50: 0.928
[3]; [19]
  total FIC50: 0.756
[4]; [7]
  total FIC90: 0.256
[4]; [8]
  total FIC90: 0.103
[4]; [9]
  total FIC90: -0.0854
[4]; [11]
  total FIC90: -0.0601
[4]; [12]
  total FIC90: 0.45
[4]; [13]
  total FIC90: 0.174
[4]; [14]
  total FIC90: 0.832
[4]; [15]
  total FIC90: 0.6
[4]; [16]
  total FIC90: -0.471
[4]; [17]
  total FIC90: 0.29
[4]; [19]
  total FIC90: 0.805
[5]; [6]
  GRinf: -0.0709
[5]; [7]
  GRinf: -0.119
[5]; [8]
  GRinf: -0.0328
[5]; [9]
  GRinf: 0.00888
[5]; [10]
  GRinf: 0.0599
[5]; [11]
  GRinf: -0.188
[5]; [12]
  GRinf: -0.755
[5]; [13]
  GRinf: -0.935
[5]; [14]
  GRinf: 0.229
[5]; [15]
  GRinf: -0.148
[5]; [16]
  GRinf: -0.215
[5]; [17]
  GRinf: 0.0708
[5]; [18]
  GRinf: -0.0893
[5]; [19]
  GRinf: -0.0199

## CC(C)/N=c1\cc2n(-c3ccc(Cl)cc3)c3ccccc3nc-2cc1Nc1ccc(Cl)cc1 [clofazimine] + CC(=O)NC[C@H]1CN(c2ccc(N3CCOCC3)c(F)c2)C(=O)O1 [linezolid] + COc1c(N2C[C@@H]3CCCN[C@@H]3C2)c(F)cc2c(=O)c(C(=O)O)cn(C3CC3)c12 [moxifloxacin]
[1]; [6]
  Einf: 0.706
[1]; [7]
  Einf: 0.915
[1]; [8]
  Einf: 0.956
[1]; [9]
  Einf: 0.978
[1]; [10]
  Einf: 0.693
[1]; [11]
  Einf: 0.925
[1]; [12]
  Einf: 0.935
[1]; [13]
  Einf: 1
[1]; [14]
  Einf: 0.903
[1]; [15]
  Einf: 0.983
[1]; [16]
  Einf: 0.859
[1]; [17]
  Einf: 0.971
[1]; [18]
  Einf: 0.868
[1]; [19]
  Einf: 0.919
[2]; [6]
  AUC25: 0.0788
[2]; [7]
  AUC25: 0.0696
[2]; [8]
  AUC25: 0.113
[2]; [9]
  AUC25: 0.0854
[2]; [10]
  AUC25: 0.141
[2]; [11]
  AUC25: 0.148
[2]; [12]
  AUC25: 0.139
[2]; [13]
  AUC25: 0.127
[2]; [14]
  AUC25: 0.0737
[2]; [15]
  AUC25: 0.0474
[2]; [17]
  AUC25: 0.105
[2]; [18]
  AUC25: 0.124
[2]; [19]
  AUC25: 0.0951
[3]; [6]
  total FIC50: -0.736
[3]; [7]
  total FIC50: 0.837
[3]; [8]
  total FIC50: 0.741
[3]; [9]
  total FIC50: 0.802
[3]; [10]
  total FIC50: 0.0515
[3]; [11]
  total FIC50: 0.132
[3]; [12]
  total FIC50: 0.411
[3]; [13]
  total FIC50: -0.0894
[3]; [14]
  total FIC50: 1.33
[3]; [15]
  total FIC50: 1.18
[3]; [17]
  total FIC50: 0.199
[3]; [18]
  total FIC50: 0.648
[3]; [19]
  total FIC50: 0.275
[4]; [7]
  total FIC90: -0.131
[4]; [8]
  total FIC90: 1.3
[4]; [9]
  total FIC90: 1.05
[4]; [11]
  total FIC90: 1.39
[4]; [12]
  total FIC90: 0.869
[4]; [13]
  total FIC90: 0.513
[4]; [14]
  total FIC90: 0.822
[4]; [15]
  total FIC90: 0.998
[4]; [16]
  total FIC90: 0.527
[4]; [17]
  total FIC90: 1.19
[4]; [19]
  total FIC90: 1.06
[5]; [6]
  GRinf: -0.3
[5]; [7]
  GRinf: -0.183
[5]; [8]
  GRinf: -0.279
[5]; [9]
  GRinf: -0.148
[5]; [10]
  GRinf: -0.0883
[5]; [11]
  GRinf: -0.21
[5]; [12]
  GRinf: -1
[5]; [13]
  GRinf: -1
[5]; [14]
  GRinf: 0.201
[5]; [15]
  GRinf: -0.18
[5]; [16]
  GRinf: -0.214
[5]; [17]
  GRinf: -0.383
[5]; [18]
  GRinf: -0.197
[5]; [19]
  GRinf: -0.0235
